Experimental data taken from US20230113037A1 (Bayer Aktiengesellschaft, priority 2019, published 2023).
“And” between values parts separate entries of the source, which are not always exact repeats. Equal values may be shown once. Read-outs that look alike come from different tables or passages of the source.

Assays:
AHR [1] = molecular target: T1, AHR (Homo sapiens, UniProt P35869); assay: In vitro assay 1: antagonism in human cell line (AHR transactivation, firefly luciferase reporter, kynurenic acid prestimulated); type: cell-based; settings: AHR Antagonism Human IC50 [M]
T1 construct: U87 MG glioblastoma cells (ATCC #HTB-14) endogenously expressing AHR; endogenous in cells; host or cells: U87 MG glioblastoma cells (ATCC #HTB-14)
T1 sequence (P35869 11-848): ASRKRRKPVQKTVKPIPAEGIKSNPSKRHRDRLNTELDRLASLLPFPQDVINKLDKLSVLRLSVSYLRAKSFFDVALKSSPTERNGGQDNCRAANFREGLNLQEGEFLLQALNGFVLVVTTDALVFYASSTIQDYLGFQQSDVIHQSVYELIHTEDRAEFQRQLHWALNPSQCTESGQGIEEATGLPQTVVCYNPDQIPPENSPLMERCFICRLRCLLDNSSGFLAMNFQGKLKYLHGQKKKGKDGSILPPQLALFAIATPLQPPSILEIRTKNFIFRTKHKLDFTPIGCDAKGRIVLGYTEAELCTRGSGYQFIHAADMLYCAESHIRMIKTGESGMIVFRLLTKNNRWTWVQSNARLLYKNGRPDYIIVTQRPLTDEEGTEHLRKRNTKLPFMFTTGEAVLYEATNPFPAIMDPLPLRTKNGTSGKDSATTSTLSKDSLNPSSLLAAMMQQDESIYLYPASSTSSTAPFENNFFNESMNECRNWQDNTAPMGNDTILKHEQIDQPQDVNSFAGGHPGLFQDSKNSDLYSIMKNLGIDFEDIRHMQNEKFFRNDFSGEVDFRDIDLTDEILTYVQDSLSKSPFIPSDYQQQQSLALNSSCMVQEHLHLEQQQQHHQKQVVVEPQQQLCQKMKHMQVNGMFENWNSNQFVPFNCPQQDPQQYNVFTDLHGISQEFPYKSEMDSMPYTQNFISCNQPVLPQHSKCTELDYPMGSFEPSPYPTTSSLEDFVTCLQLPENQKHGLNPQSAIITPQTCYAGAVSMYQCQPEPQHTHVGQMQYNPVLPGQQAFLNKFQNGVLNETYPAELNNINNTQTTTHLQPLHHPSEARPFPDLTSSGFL
Procedure, shortened: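 U87 MG + DRE-firefly/constitutive-Renilla stable reporters; kynurenic acid prestim; dual-luc read; Renilla = tox; normalized vs pos/neg controls (pos: 150 μM KYNA + 5 μM staurosporine).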

AHR [2] = molecular target: T2, AHR (Mus musculus, UniProt P30561); assay: In vitro assay 3: antagonism in mouse cell line (AHR transactivation, firefly luciferase reporter, kynurenic acid prestimulated); type: cell-based
T2 sequence (P30561 1-848 P471L/N533S/M589L): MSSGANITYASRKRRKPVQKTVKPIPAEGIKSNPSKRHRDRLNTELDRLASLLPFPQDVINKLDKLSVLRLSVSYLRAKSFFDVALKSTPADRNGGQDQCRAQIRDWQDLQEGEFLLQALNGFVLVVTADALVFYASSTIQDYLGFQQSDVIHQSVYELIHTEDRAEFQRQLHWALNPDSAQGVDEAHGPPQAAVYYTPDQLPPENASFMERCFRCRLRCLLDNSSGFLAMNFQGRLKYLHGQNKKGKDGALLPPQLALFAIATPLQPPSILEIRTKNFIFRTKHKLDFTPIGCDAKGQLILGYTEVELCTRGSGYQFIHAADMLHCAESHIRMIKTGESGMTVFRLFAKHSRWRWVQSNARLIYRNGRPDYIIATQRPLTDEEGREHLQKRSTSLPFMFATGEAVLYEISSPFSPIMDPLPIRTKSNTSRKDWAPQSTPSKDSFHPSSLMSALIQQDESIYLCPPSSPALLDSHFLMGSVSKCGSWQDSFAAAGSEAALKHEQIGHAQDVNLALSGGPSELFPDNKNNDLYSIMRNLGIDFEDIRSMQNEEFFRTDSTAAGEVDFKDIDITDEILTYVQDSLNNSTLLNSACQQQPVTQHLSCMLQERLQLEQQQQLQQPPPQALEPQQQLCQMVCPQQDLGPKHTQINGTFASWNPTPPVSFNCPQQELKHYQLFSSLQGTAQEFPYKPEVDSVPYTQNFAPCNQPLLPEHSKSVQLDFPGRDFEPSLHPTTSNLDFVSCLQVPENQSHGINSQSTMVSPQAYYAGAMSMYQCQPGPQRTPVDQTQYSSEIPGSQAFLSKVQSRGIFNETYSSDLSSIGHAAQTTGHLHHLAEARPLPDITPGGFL
Procedure, shortened: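 Mouse cells stably carrying a DRE-driven AHR-inducible firefly luciferase reporter were prestimulated with the endogenous agonist kynurenic acid before compound addition. Luciferase read by SteadyGlo; cells without kynurenic acid served as full-inhibition control, with normalization to positive and negative controls. Repeat tests reported as mean or median.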

[3] = mouse Hepa 1c1c7 cells, 200 μM kynurenic acid, 20 hours, read-out: AHR Antagonism Mouse IC50
[4] = Hepa 1c1c7 cells, 200 μM kynurenic acid, 20 hours, firefly luciferase reporter, read-out: AHR Antagonism Mouse IC50

O=C1NCCCC[C@H]1Nc1nc2c(Br)cccc2c2nc(-c3ccc(Cl)cc3OC(F)(F)F)nn12 [Example 571, (3R)-3-({7-bromo-2-[4-chloro-2-(trifluoromethoxy)phenyl][1,2,4]triazolo[1,5-c]quinazolin-5-yl}amino)azepan-2-one]
IC50 (AHR [1]): > 2e-05 M | IC50 (AHR [2]; [3]): 10.1 nM

N#Cc1ccc(-c2nc3c4cccc(Br)c4nc(N[C@H]4CCCCNC4=O)n3n2)cc1 [Example 559, 4-(7-bromo-5-{[(3S)-2-oxoazepan-3-yl]amino}[1,2,4]triazolo[1,5-c]quinazolin-2-yl)benzonitrile]
IC50 (AHR [1]): 5.14e-09 M | IC50 (AHR [2]; [3]): 10.4 nM

CS(=N)(=O)c1ccc(-c2nc3c4ccccc4nc(N[C@@H]4CCCCNC4=O)n3n2)cc1 (stereo partly drawn) [Example 306, (3R)-3-({2-[4-(S-methylsulfonimidoyl)phenyl][1,2,4]triazolo[1,5-c]quinazolin-5-yl}amino)azepan-2-one]
IC50 (AHR [1]): 1.09e-07 M | IC50 (AHR [2]; [3]): 31.2 nM

O=C1NCCCC[C@H]1Nc1nc2ccccc2c2nc(-c3cccc(C(F)(F)F)c3)nn12 [Example 54, (3R)-3-({2-[3-(trifluoromethyl)phenyl][1,2,4]triazolo[1,5-c]quinazolin-5-yl}amino)azepan-2-one]
IC50 (AHR [1]): 2.08e-08 M | IC50 (AHR [2]; [3]): 3.2 nM

CCCNC(=O)[C@H](C)Nc1nc2c(Br)cccc2c2nc(-c3ccc(Cl)cc3OC(F)(F)F)nn12 [Example 811, N^2-{7-bromo-2-[4-chloro-2-(trifluoromethoxy)phenyl][1,2,4]triazolo[1,5-c]quinazolin-5-yl}-N-propyl-L-alaninamide]
IC50 (AHR [1]; firefly luciferase reporter): > 5.71e-06 M and 4.65e-06 M and > 2e-06 M | IC50 (AHR [2]; [4]): 43.3 nM

CC[C@@H](Nc1nc2ccccc2c2nc(-c3csc(C)c3)nn12)C(N)=O [Example 358]
IC50 (AHR [1]): 3.15e-09 M | IC50 (AHR [2]; [3]): 1.78 nM

CC(C)n1cc(-c2nc3c4cccc(C#N)c4nc(N[C@@H]4CCCCNC4=O)n3n2)cn1 [Example 760, 5-{[(3R)-2-oxoazepan-3-yl]amino}-2-[1-(propan-2-yl)-1H-pyrazol-4-yl][1,2,4]triazolo[1,5-c]quinazoline-7-carbonitrile]
IC50 (AHR [1]): 3.6e-09 M | IC50 (AHR [2]; [3]): 10 nM

CC[C@@H](Nc1nc2ccccc2c2nc(-c3ccccc3OC(F)F)nn12)C(N)=O [Example 476, (2R)-2-({2-[2-(difluoromethoxy)phenyl][1,2,4]triazolo[1,5-c]quinazolin-5-yl}amino)butanamide]
IC50 (AHR [1]): 3.93e-09 M | IC50 (AHR [2]; read-out: AHR Antagonism Mouse IC50, mouse Hepa 1c1c7 cells, 200 μM kynurenic acid, 20 hours): 0.554 nM

O=C1NCCCC[C@H]1Nc1nc2ccccc2c2nc(-c3c[nH]nc3C(F)(F)F)nn12 [Example 604, (3R)-3-({2-[3-(trifluoromethyl)-1H-pyrazol-4-yl][1,2,4]triazolo[1,5-c]quinazolin-5-yl}amino)azepan-2-one]
IC50 (AHR [1]): 1.33e-07 M | IC50 (AHR [2]; [3]): 347 nM

CCSc1cccc2c1nc(N[C@@H]1CCCCNC1=O)n1nc(-c3ccc(OC)cc3)nc21 [Example 770, (3R)-3-{[7-(ethylsulfanyl)-2-(4-methoxyphenyl)[1,2,4]triazolo[1,5-c]quinazolin-5-yl]amino}azepan-2-one]
IC50 (AHR [1]): 4.04e-09 M | IC50 (AHR [2]; [3]): 5.09 nM

O=C1NCCCC[C@H]1Nc1nc2ccccc2c2nc(-c3ccccc3OC(F)F)nn12 [Example 470, (3R)-3-({2-[2-(difluoromethoxy)phenyl][1,2,4]triazolo[1,5-c]quinazolin-5-yl}amino)azepan-2-one]
IC50 (AHR [1]): 1.34e-09 M | IC50 (AHR [2]; [3]): 0.5 nM

CC(C)S(=O)(=O)c1cccc2c1nc(N[C@@H]1CNCCNC1=O)n1nc(-c3cnn(C)c3)nc21 [Example 943, (6R)-6-{[2-(1-methyl-1H-pyrazol-4-yl)-7-(propane-2-sulfonyl)[1,2,4]triazolo[1,5-c]quinazolin-5-yl]amino}-1,4-diazepan-5-one]
IC50 (AHR [1]; firefly luciferase reporter): 9.47e-07 M | IC50 (AHR [2]; [4]): 2790 nM

Cc1c(-c2nc3c4cccc(F)c4nc(N[C@@H]4CCCCNC4=O)n3n2)cnn1C [Example 835, (3R)-3-{[2-(1,5-dimethyl-1H-pyrazol-4-yl)-7-fluoro[1,2,4]triazolo[1,5-c]quinaozlin-5-yl]amino}azepan-2-one]
IC50 (AHR [1]; firefly luciferase reporter): 1.54e-08 M | IC50 (AHR [2]; [4]): 18.5 nM

O=C1NCCCC[C@H]1Nc1nc2ccccc2c2nc(-c3cncnc3)nn12 [Example 642, (3R)-3-{[2-(pyrimidin-5-yl)[1,2,4]triazolo[1,5-c]quinazolin-5-yl]amino}azepan-2-one]
IC50 (AHR [1]): 3.34e-07 M | IC50 (AHR [2]; [3]): 683 nM

O=C1NCCCC[C@H]1Nc1nc2ccccc2c2nc(-c3ccccc3OC(F)(F)F)nn12 [Example 456, (3R)-3-({2-[2-(trifluoromethoxy)phenyl][1,2,4]triazolo[1,5-c]quinazolin-5-yl}amino)azepan-2-one]
IC50 (AHR [1]): 2.98e-09 M | IC50 (AHR [2]; [3]): 3.56 nM

O=C1NCCCC[C@H]1Nc1nc2ccccc2c2nc(-c3ccc(F)c(F)c3)nn12 [Example 633, (3R)-3-{[2-(3,4-difluorophenyl)[1,2,4]triazolo[1,5-c]quinazolin-5-yl]amino}azepan-2-one]
IC50 (AHR [1]): 1.14e-09 M | IC50 (AHR [2]; [3]): 0.64 nM

Cn1cc(-c2nc3c4cccc(C#N)c4nc(N[C@@H]4CCCCNC4=O)n3n2)cn1 [Example 403, 2-(1-Methyl-1H-pyrazol-4-yl)-5-{[(3R)-2-oxoazepan-3-yl]amino}[1,2,4]triazolo[1,5-c]quinazoline-7-carbonitrile]
IC50 (AHR [1]): 3.03e-08 M | IC50 (AHR [2]; [3]): 95.1 nM

O=C1NCCC[C@H]1Nc1nc2c(Br)cccc2c2nc(-c3ccccc3OC(F)(F)F)nn12 [Example 220, (3R)-3-({7-bromo-2-[2-(trifluoromethoxy)phenyl][1,2,4]triazolo[1,5-c]quinazolin-5-yl}amino)piperidin-2-one]
IC50 (AHR [1]): 2e-08 M | IC50 (AHR [2]; [3]): 6.76 nM

O=C1NCCCC[C@H]1Nc1nc2ccccc2c2nc(-c3cccnc3C(F)(F)F)nn12 [Example 488, (3R)-3-({2-[2-(trifluoromethyl)pyridin-3-yl][1,2,4]triazolo[1,5-c]quinazolin-5-yl}amino)azepan-2-one]
IC50 (AHR [1]): 6.4e-08 M | IC50 (AHR [2]; [3]): 12.3 nM

COc1cccc(-c2nc3c4cccc(C)c4nc(N[C@H]4CCCCNC4=O)n3n2)c1 [Example 141]
IC50 (AHR [1]): 2.84e-08 M | IC50 (AHR [2]; [3]): 83.2 nM

COc1cccc(-c2nc3c4ccccc4nc(N[C@@H](CCCCN)C(N)=O)n3n2)c1 [Example 114, N^2-[2-(3-methoxyphenyl)[1,2,4]triazolo[1,5-c]quinazolin-5-yl]-L-lysinamide]
IC50 (AHR [1]): > 2e-05 M | IC50 (AHR [2]; [3]): 5510 nM and > 5710 nM

CN1CCCC[C@@H](Nc2nc3c(C(F)(F)F)cccc3c3nc(-c4cnn(C)c4)nn23)C1=O [Example 739, (3R)-1-methyl-3-{[2-(1-methyl-1H-pyrazol-4-yl)-7-(trifluoromethyl)[1,2,4]triazolo[1,5-c]quinazolin-5-yl]amino}azepan-2-one]
IC50 (AHR [1]): 6.64e-10 M | IC50 (AHR [2]; [3]): 1.4 nM

O=C1NCCCC[C@H]1Nc1nc2ccccc2c2nc(-c3cnn(C4CCC4)c3)nn12 [Example 603, (3R)-3-{[2-(1-cyclobutyl-1H-pyrazol-4-yl)[1,2,4]triazolo[1,5-c]quinazolin-5-yl]amino}azepan-2-one]
IC50 (AHR [1]): 4.08e-09 M | IC50 (AHR [2]; [3]): 3.39 nM
